Entries after “also recorded” stand apart in the source; their conditions may differ. Read-outs that look alike come from different tables or passages of the source.
Experiments:
EU-1 cells = assay: Cytotoxicity test (CCK-8 cell viability) in EU-1 cells; assay type: cell-based; details: for IC50: read-out: IC50 (μM) in EU-1 cells; for fold more potent than BW-AQ-238: compared to BW-AQ-238
Experimental: (§1) Cell viability was assessed by using Cell Counting Kit-8 (CCK-8, Dojindo, Japan). EU-1 and RS4;11 cells were cultured in RPMI-1640 medium (Corning, USA); MCF7 and HEK-293 cells were cultured in MEM (Corning, USA); and HeLa and H9c2 cells were cultured in high glucose DMEM (Corning, USA). All the culture mediums were supplemented with 10% fetal bovine serum (Corning, USA) and 100 unit/ml penicillin, and […] streptomycin. For cytotoxicity assays, cells were seeded into 96-well plates at a density of 3× 10^5 cells per well (50 μL). Compounds were dissolved in DMSO (molecular biology grade, Sigma-Aldrich, USA) to make 10 mM stock solutions, which were serially diluted with the culture medium to various concentrations (final DMSO concentration=0.5%). A culture medium (50 μL) containing the anthraquinone analog was added directly to the cell suspension in each well immediately after seeding. After incubation for 24 h at 37° C. in a humidified atmosphere with 5% CO2, 10 μL of CCK-8 solution was added to each well, and the plate was incubated for an additional 2-4 h at 37° C. before measuring the optical density at 450 nm with a microplate reader (PerkinElmer Victor 2, USA). The cell viability of each well was calculated as the percentage of the untreated control according to the manufacturer's manual. All tests were performed in triplicates, and IC50 values were determined with six concentrations by non-linear regression using GraphPad Prism 9.

[1] = tested on: RS4;11 cells (wild-type p53); assay: Cytotoxicity test of BW-AQ-365 (CCK-8) in RS4;11 cells; assay type: cell-based; details: Homo sapiens; RS4; 11, 25000 cells/well, 48 h, positive control
Experimental: Cell viability was assessed by using Cell Counting Kit-8 (CCK-8, Dojindo, Japan). RS4;11 cells (wild-type p53) were cultured in RPMI-1640 medium (Corning, USA). The culture mediums were supplemented with 10% fetal bovine serum (Corning, USA) and 100 unit/ml penicillin, and […] streptomycin. […] Compounds were dissolved in DMSO (molecular biology grade, Sigma-Aldrich, USA) to make 10 mM stock solutions, which were serially diluted with the culture medium to various concentrations (final DMSO concentration=0.5%). A culture medium (50 μL) containing BW-AQ-365 was added directly to the cell suspension in each well immediately after seeding. After incubation for 24-72 h at 37° C. in a humidified atmosphere with 5% CO2, 10 μL of CCK-8 solution was added to each well, and the plate was incubated for an additional 2-4 h at 37° C. before measuring the optical density at 450 nm with a microplate reader (PerkinElmer Victor 2, USA). The cell viability of each well was calculated as the percentage of the untreated control according to the manufacturer's manual. All tests were performed in triplicates, and IC50 values were determined by non-linear regression using GraphPad Prism 9.0.

[2] = Thiol (NAC) reactivity study by HPLC; assay type: physicochemical; details: for order of reactivity with NAC (pseudo-first-order kinetics): 0.3 mM analog, 1.5 mM NAC
Experimental: HPLC was performed on Shimadzu LC-20AT HPLC system. Condition: mobile phase A: water with 0.05% TFA; B: acetonitrile with 0.05% TFA; gradient: 5-95% B, 0-10 min; […]; 5% B 12.1-15 min. Column: C18, 3.5 μm, 4.6×150 mm; UV detector monitored at 254 nm. For the thiol reactivity assay, a 0.3 mM solution of AQ-analogs was prepared in 0.5 mL PBS: MeOH (80:20) and warmed at 37° C. Next, 25 μL of NAC (from 30 mM stock solution in PBS) was added to the above solution. The resultant solution had final concentrations of 0.3 mM AQ-analogs and 1.5 mM NAC. 20 μL of the reaction mixture was injected into the HPLC at the designated time intervals. The area percentage values were determined via the integration of the area under the curve (AUC) of the chromatogram.

RS4;11 cells = assay: Cytotoxicity test (CCK-8) in RS4;11 cells; assay type: cell-based; details: Homo sapiens
Experimental: as §1, with “A culture medium (50 μL) containing the anthraquinone analog was added directly to the cell suspension in each well immediately after seeding.” left out

MCF7 cells = assay: Cytotoxicity test (CCK-8) in MCF7 cells; assay type: cell-based; details: Homo sapiens
Experimental: as §1, with “A culture medium (50 μL) containing the anthraquinone analog was added directly to the cell suspension in each well immediately after seeding.” left out

HeLa cells = assay: Cytotoxicity test (CCK-8) in HeLa cells; assay type: cell-based; details: for IC50: Homo sapiens, HeLa cells
Experimental: as §1

[3] = tested on: MDM2 and p53 in EU-1 leukemia cells; assay: Western blot of MDM2 and p53 in EU-1 leukemia cells; assay type: cell-based; details: EU-1 cells; for MDM2 and p53 level by Western blot, dose and time dependence: GAPDH loading control
Experimental: Western Blot 5×10^6 cells were seeded in a 6-well plate and incubated for 12 h before the drug-loaded medium was added. The cells were harvested at designated time points, washed with cold PBS, and centrifuged at 1500 rpm×3 min. Then the cells were lysed by adding 100 μL of cold NP-40 buffer (supplied with complete™ protease Inhibitor tablet (Roche, USA)) and 1 mM PMSF (Thermo-Fisher, USA) on ice for 30 min. The cell lysates were centrifuged at 12500×g at 4° C. for 10 min, and the total protein concentration in the supernatant was measured with the BCA assay (Thermo-Fisher, USA). 30 μL of the cell lysate was mixed with 10 μL 4×Laemmli sample buffer and denatured at 95° C. for 5 min. The total protein concentration was adjusted with 1×Laemmli sample buffer. Equal amounts of protein sample were loaded onto a 4-15% gradient SDS-PAGE gel (Bio-rad, USA). After electrophoresis, the protein was transferred to the […] membrane (Bio-rad, USA) with the Trans-Blot Turbo system (Bio-rad, USA). The target protein was probed with the corresponding antibody using iBind Western Systems (Thermo-Fisher, USA), according to the manufacturer's manual. Antibody and dilution profile: MDM2 ((SMP14), 1:500 Santa Cruz, USA); p53 ((DO-1), 1:800, Santa Cruz, USA); GAPDH ((0411), 1:2000, Santa Cruz, USA) and HRP conjugated goat anti-mouse secondary antibody (1:2000, Bio-rad, USA). After incubation with Pierce ECL Plus Substrate (Thermo Scientific), chemiluminescent was detected and imaged with LSA^4000 (GE Healthcare, Fairfield, USA).

HEK-293 cells = assay: Cytotoxicity test (CCK-8) in HEK-293 cells; assay type: cell-based; details: Homo sapiens, HEK293
Experimental: as §1, with “A culture medium (50 μL) containing the anthraquinone analog was added directly to the cell suspension in each well immediately after seeding.” left out

H9c2 cells = assay: Cytotoxicity test (CCK-8) in H9c2 cells; assay type: cell-based; details: Rattus norvegicus
Experimental: as §1, with “A culture medium (50 μL) containing the anthraquinone analog was added directly to the cell suspension in each well immediately after seeding.” left out

EU-1 ALL cells = details: background; cited from earlier work
[4] = EU-1 cells, 24 h incubation, CCK-8
[5] = EU-1 cells, compared to BW-AQ-295

SMILES: COc1cccc2c1C(=O)c1c(O)c3c(c(O)c1C2=O)C[C@@](O)(C(=O)CO)C[C@@H]3O[C@H]1C[C@H](N)[C@H](O)[C@H](C)O1 [Doxorubicin, reference compound]
- IC50 (EU-1 cells; [4]): 0.15 ± 0.02 µM
- IC50 [1]: 53.1 ± 6.1 nM

SMILES: C#CC(N)=O [Propiolamide, reference compound]
- IC50 (EU-1 cells; [4]): 33.5 ± 7.8 µM

SMILES: CC(=O)CCOc1cccc2c1C(=O)c1c(OCCC(C)=O)cc(NC(=O)CCl)cc1C2=O [BW-AQ-260, 2-chloro-N-(9,10-dioxo-4,5-bis(3-oxobutoxy)-9,10-dihydroanthracen-2-yl)acetamide]
- IC50 (EU-1 cells; [4]): 0.45 µM
- fold more potent than BW-AQ-238 (EU-1 cells; EU-1 cells): about 3 fold

SMILES: CC(=O)CCCCOc1cccc2c1C(=O)c1c(OCCCCC(C)=O)cc(NC(=O)CCl)cc1C2=O [BW-AQ-345, 2-chloro-N-(9,10-dioxo-4,5-bis ((5-oxohexyl)oxy)-9,10-dihydroanthracen-2-yl)acetamide]
- IC50 (EU-1 cells; EU-1, 24 h): 0.79 ± 0.03 µM

SMILES: C=CS(=O)(=O)Nc1cc(OCCCC(C)=O)c2c(c1)C(=O)c1cccc(OCCCC(C)=O)c1C2=O [BW-AQ-354, N-(9,10-dioxo-4,5-bis ((4-oxopentyl)oxy)-9,10-dihydroanthracen-2-yl) ethenesulfonamide]
- order of reactivity with NAC (pseudo-first-order kinetics) ([2]; 37° C. in PBS, HPLC): BW-AQ-350 >BW-AQ-353 >BW-AQ-295 ~ BW-AQ-354 >>BW-AQ-349
- cytotoxicity in EU-1 cells, in words (EU-1 cells; EU-1 cells): more potent than BW-AQ-353
- IC50 (EU-1 cells; [4]): 3.45 ± 0.45 µM

SMILES: CC(=O)CCCOc1cc(NC(=O)CCl)cc2c1C(=O)c1c(O)cccc1C2=O [BW-AQ-336, 2-chloro-N-(5-hydroxy-9,10-dioxo-4-((4-oxopentyl)oxy)-9,10-dihydroanthracen-2-yl)acetamide]
- IC50 (EU-1 cells; [4]): 0.84 ± 0.02 µM
- fold decrease in potency / less potent compared to BW-AQ-295 (EU-1 cells; [5]): about 2 fold

SMILES: CC(=O)CCCOc1cccc2c1C(=O)c1c(OCCCC(C)=O)cc(NC(=O)CCl)cc1C2=O [BW-AQ-295, 2-chloro-N-(9,10-dioxo-4,5-bis ((4-oxopentyl)oxy)-9,10-dihydroanthracen-2-yl)acetamide]
- IC50 (RS4;11 cells): 690 ± 100 nM
- IC50 (MCF7 cells): 950 ± 170 nM
- fold less potency in HeLa cells compared to MCF7 cells (HeLa cells; HeLa vs MCF7): over 2 fold
- IC50 (HeLa cells): 2310 ± 80 nM
- MDM2 and p53 level by Western blot, time course ([3]; 0.8 μM): decreased MDM2 and increased p53 level were observed from the 4-h time point
- MDM2 level by Western blot ([3]; 2 μM, 6 h): decreased MDM2 to an almost undetectable level
- MDM2 and p53 level by Western blot, dose and time dependence [3]: decrease MDM2 level and increase p53 level in a dose- and time-dependent manner; also recorded: downregulate MDM2 and upregulate p53 in EU-1 cells in a time- and dose-dependent fashion; also recorded: downregulation of MDM2 and upregulation p53
- reactivity towards thiol, in words [2]: reacts with thiol species
- order of reactivity with NAC (pseudo-first-order kinetics) ([2]; 37° C. in PBS, HPLC): BW-AQ-350 >BW-AQ-353 >BW-AQ-295 ~ BW-AQ-354 >>BW-AQ-349
- IC50 (HEK-293 cells): 1160 ± 340 nM
- IC50 (EU-1 cells; [4]): 0.43 ± 0.06 µM
- fold more potent than BW-AQ-238 (EU-1 cells; EU-1 cells): about 3 fold
- IC50 (H9c2 cells): 1120 ± 200 nM

SMILES: O=C(CCl)Nc1cc(OCCO)c2c(c1)C(=O)c1cccc(OCCO)c1C2=O [BW-AQ-238, reference compound]
- IC50 (EU-1 cells; [4]): 0.74 ± 0.12 µM

SMILES: C#CC(=O)Nc1cc(OCCCC(C)=O)c2c(c1)C(=O)c1cccc(OCCCC(C)=O)c1C2=O [BW-AQ-350, N-(9,10-dioxo-4,5-bis ((4-oxopentyl)oxy)-9,10-dihydroanthracen-2-yl) propiolamide]
- IC50 (RS4;11 cells): 520 ± 70 nM
- IC50 (MCF7 cells): 4930 ± 450 nM
- IC50 (HeLa cells): 4670 ± 250 nM
- MDM2 and p53 level by Western blot, dose and time dependence [3]: induced decrease in MDM2 levels in a dose- and time-dependent fashion; also recorded: downregulate MDM2 and upregulate p53 in EU-1 cells in a time- and dose-dependent fashion; also recorded: downregulation of MDM2 and upregulation p53
- reactivity towards thiol, in words [2]: high reactivity towards nucleophile such as thiol and amino acid
- order of reactivity with NAC (pseudo-first-order kinetics) ([2]; 37° C. in PBS, HPLC): BW-AQ-350 >BW-AQ-353 >BW-AQ-295 ~ BW-AQ-354 >>BW-AQ-349
- IC50 (HEK-293 cells): 2350 ± 690 nM
- IC50 (EU-1 cells; [4]): 0.19 µM
- fold increase in potency compared to BW-AQ-295 (EU-1 cells; [5]): 2 fold
- IC50 (H9c2 cells): ~300 nM

SMILES: C=CC(=O)Nc1cc(OCCCC(C)=O)c2c(c1)C(=O)c1cccc(OCCCC(C)=O)c1C2=O [BW-AQ-353, N-(9,10-dioxo-4,5-bis ((4-oxopentyl)oxy)-9,10-dihydroanthracen-2-yl) acrylamide]
- order of reactivity with NAC (pseudo-first-order kinetics) ([2]; 37° C. in PBS, HPLC): BW-AQ-350 >BW-AQ-353 >BW-AQ-295 ~ BW-AQ-354 >>BW-AQ-349
- IC50 (EU-1 cells; [4]): 6.21 ± 0.45 µM
- fold decrease in potency / less potent compared to BW-AQ-295 (EU-1 cells; [5]): about 15 fold

SMILES: CC(=O)CCCOc1cccc2c1C(=O)c1c(OCCCC(C)=O)cc(NC(C)=O)cc1C2=O [BW-AQ-349, N-(9,10-dioxo-4,5-bis ((4-oxopentyl)oxy)-9,10-dihydroanthracen-2-yl)acetamide]
- stability in presence of NAC ([2]; 37° C. in PBS, HPLC): remained unchanged during the study duration (>400 min)
- order of reactivity with NAC (pseudo-first-order kinetics) ([2]; 37° C. in PBS, HPLC): BW-AQ-350 >BW-AQ-353 >BW-AQ-295 ~ BW-AQ-354 >>BW-AQ-349
- IC50 (EU-1 cells; EU-1, 24 h): > 100 µM
- cytotoxicity in EU-1 cells, in words (EU-1 cells; EU-1 cells): lack of activity

SMILES: O=C(CCl)Nc1cc(O)c2c(c1)C(=O)c1cccc(O)c1C2=O [BW-AQ-101, 2-chloro-N-(4,5-dihydroxy-9,10-dioxo-9,10-dihydroanthracen-2-yl)acetamide]
- IC50 (EU-1 ALL cells): ~800 nM

From patent publication US20260257987A1, “COMPOUNDS AND METHOD FOR UPREGULATION OF P53 THROUGH INDUCTION OF MDM2 DEGRADATION” (Georgia State University Research Foundation, Inc., priority 2022, published 2026)
